The record followed here is ChEMBL document CHEMBL3596091, “Synthesis and evaluation of novel fluorinated pyrazolo-1,2,3-triazole hybrids as antimycobacterial agents” (Bioorg Med Chem Lett, 2015).

In one assay the test system is A549. Briefly: Cytotoxicity against human A549 cells incubated for 48 hrs by SRB assay. Format: cell-based. As to conditions: A549, 48 h.
The subject of assay [1] is Mycolicibacterium smegmatis. Briefly: Antimycobacterial activity against Mycobacterium smegmatis str. MC2 155 incubated for 30 hrs by turbidometric assay. Format: functional. The settings on record: str. MC2 155, 30 h.

In brackets after ≈: the same amount, converted by molar mass.

`CCOC(=O)c1cn(CC(=O)Nc2c(C(F)(F)F)n[nH]c2-c2ccccc2)nn1`: the IC50 in the assay with A549 is over 100 µg/mL. In assay [1], this compound came in with an MIC of 27.7 µg/mL (≈ 67.9 µM).
For `NNC(=O)c1ccncc1` [ISONIAZID], in assay [1], the lowest concentration to inhibit growth (MIC) was 12.1 µg/mL (≈ 88 µM).
Compound `COc1cccc(NCc2cn(CC(=O)Nc3c(C(F)(F)F)n[nH]c3-c3ccccc3)nn2)c1` had an IC50 in the assay on A549 of 38.3 µg/mL (≈ 81.3 µM). In assay [1], this compound registered an MIC of 53.9 µg/mL (≈ 114 µM).
Take `O=C(Cn1cc(CNc2cccc(C(F)(F)F)c2)nn1)Nc1c(C(F)(F)F)n[nH]c1-c1ccccc1`: half-maximal inhibition in the assay with A549 (IC50) required 25.3 µg/mL (≈ 49.7 µM). In assay [1], this compound gave a minimal inhibitory concentration (MIC) of 99.6 µg/mL (≈ 196 µM).
`Cc1cccc(C)c1NCc1cn(CC(=O)Nc2c(C(F)(F)F)n[nH]c2-c2ccccc2)nn1`: in the assay with A549, half-maximal inhibition (IC50) required 52.9 µg/mL (≈ 113 µM). This compound also had a minimum inhibitory concentration (MIC) in assay [1] of 64.1 µg/mL (≈ 136 µM).
For `COc1ccc(C(=O)c2cn(CC(=O)Nc3c(C(F)(F)F)n[nH]c3-c3ccccc3)nn2)cc1OC`, in that order: 26.8 µg/mL (≈ 53.6 µM) and 65.7 µg/mL (≈ 131 µM).
Compound `COc1ccc(-c2nn(-c3ccccc3)cc2C(=O)c2cn(CC(=O)Nc3c(C(F)(F)F)n[nH]c3-c3ccccc3)nn2)cc1` returned an IC50 with A549 of 59.6 µg/mL (≈ 97.3 µM). This compound returned an MIC in assay [1] of 25.3 µg/mL (≈ 41.2 µM).
Consider `O=C(Cn1cc(-c2ccccc2C(F)(F)F)nn1)Nc1c(C(F)(F)F)n[nH]c1-c1ccccc1`, for which half-maximal inhibition with A549 (IC50) was put at 64.2 µg/mL (≈ 134 µM). For the same compound, the MIC in assay [1] was found to be 53 µg/mL (≈ 110 µM).
For `Cc1ccc(-c2nn(-c3ccccc3)cc2C(=O)c2cn(CC(=O)Nc3c(C(F)(F)F)n[nH]c3-c3ccccc3)nn2)cc1`, the half-maximal inhibitory concentration (IC50) in the assay with A549 is over 100 µg/mL. Besides, in assay [1], the MIC amounted to 94.5 µg/mL (≈ 158 µM).
`CO[C@H]1/C=C/O[C@@]2(C)Oc3c(C)c(O)c4c(O)c(c(/C=N/N5CCN(C)CC5)c(O)c4c3C2=O)NC(=O)/C(C)=C\C=C\[C@H](C)[C@H](O)[C@@H](C)[C@@H](O)[C@@H](C)[C@H](OC(C)=O)[C@@H]1C` [RIFAMPIN] came in with an MIC in assay [1] of 2.15 µg/mL (≈ 2.61 µM).
In turn, `O=C(Cn1cc(-c2ccccc2)nn1)Nc1c(C(F)(F)F)n[nH]c1-c1ccccc1` had an IC50 in the assay on A549 of 52.2 µg/mL (≈ 127 µM). The compound further came in with a minimum inhibitory concentration (MIC) in assay [1] of 35.9 µg/mL (≈ 87.1 µM).
As to `O=C(Cn1cc(-c2ccc(OC(F)(F)F)cc2)nn1)Nc1c(C(F)(F)F)n[nH]c1-c1ccccc1`, in the assay with A549, the IC50 amounted to 45.3 µg/mL (≈ 91.2 µM). In assay [1], this compound had an MIC of 35.4 µg/mL (≈ 71.3 µM).
The like results for `CCCCCc1ccc(-c2cn(CC(=O)Nc3c(C(F)(F)F)n[nH]c3-c3ccccc3)nn2)cc1` were, in that order, over 100 µg/mL and 35.4 µg/mL (≈ 73.3 µM).
In turn, `COc1cccc2c1C(=O)c1c(O)c3c(c(O)c1C2=O)C[C@@](O)(C(=O)CO)C[C@@H]3O[C@H]1C[C@H](N)[C@H](O)[C@H](C)O1` [DOXORUBICIN] displayed an IC50 in the assay with A549 of 8.5 µg/mL (≈ 15.6 µM).
In the assay on A549, `COc1ccc(C(=O)c2cn(CC(=O)Nc3c(C(F)(F)F)n[nH]c3-c3ccccc3)nn2)cc1` gave an IC50 of 80.7 µg/mL (≈ 172 µM). In assay [1], this compound gave an MIC of 15.3 µg/mL (≈ 32.6 µM).
As to `COc1ccc(NCc2cn(CC(=O)Nc3c(C(F)(F)F)n[nH]c3-c3ccccc3)nn2)cc1OC`, the IC50 in the assay with A549 was over 100 µg/mL. For the same compound, the MIC in assay [1] is 58.3 µg/mL (≈ 116 µM).
In the assay on A549, `COc1ccc(/C=N/NC(=O)c2cn(CC(=O)Nc3c(C(F)(F)F)n[nH]c3-c3ccccc3)nn2)cc1` had an IC50 of over 100 µg/mL. In assay [1], this compound displayed an MIC of 45.6 µg/mL (≈ 88.9 µM).
For `O=C(Cn1cc(-c2ccc(-c3ccccc3)cc2)nn1)Nc1c(C(F)(F)F)n[nH]c1-c1ccccc1`, in that order: 57 µg/mL (≈ 117 µM) and 31.8 µg/mL (≈ 65 µM).
`O=C(Cn1cc(COc2cccc3c(C(F)(F)F)cc(=O)oc23)nn1)Nc1c(C(F)(F)F)n[nH]c1-c1ccccc1` gave an IC50 with A549 of over 100 µg/mL. The compound further gave an MIC in assay [1] of 53.7 µg/mL (≈ 92.8 µM).
For `O=C(Cn1cc(C(=O)c2cn(-c3ccccc3)nc2-c2ccccc2)nn1)Nc1c(C(F)(F)F)n[nH]c1-c1ccccc1`, in that order: 68 µg/mL (≈ 117 µM) and 28.8 µg/mL (≈ 49.5 µM).
In the assay on A549, `NNC(=O)c1cn(CC(=O)Nc2c(C(F)(F)F)n[nH]c2-c2ccccc2)nn1` displayed an IC50 of 67.6 µg/mL (≈ 171 µM). For the same compound, the MIC in assay [1] was 33.9 µg/mL (≈ 85.9 µM).
For `O=C(Cn1cc(C(=O)N/N=C/c2ccccc2C(F)(F)F)nn1)Nc1c(C(F)(F)F)n[nH]c1-c1ccccc1`, in the assay with A549, the IC50 is over 100 µg/mL. In assay [1], this compound came in with an MIC of 16.2 µg/mL (≈ 29.4 µM).
In the assay with A549, `COc1cc(NCc2cn(CC(=O)Nc3c(C(F)(F)F)n[nH]c3-c3ccccc3)nn2)cc(OC)c1OC` returned an IC50 of over 100 µg/mL. The same compound displayed an MIC in assay [1] of 78.3 µg/mL (≈ 147 µM).
In the assay on A549, `COc1ccc(/C=N/NC(=O)c2cn(CC(=O)Nc3c(C(F)(F)F)n[nH]c3-c3ccccc3)nn2)cc1OC` gave a half-maximal inhibitory concentration (IC50) of over 100 µg/mL. The MIC in assay [1] was 41.3 µg/mL (≈ 76.1 µM).
The compound `Cc1cccc(-c2cn(CC(=O)Nc3c(C(F)(F)F)n[nH]c3-c3ccccc3)nn2)c1` came in with an IC50 in the assay with A549 of 60.6 µg/mL (≈ 142 µM). For the same compound, the MIC in assay [1] stood at 29.9 µg/mL (≈ 70.2 µM).
`O=C(Cn1cc(C(=O)N/N=C/c2cccc(Oc3ccccc3)c2)nn1)Nc1c(C(F)(F)F)n[nH]c1-c1ccccc1`: the IC50 in the assay on A549 is over 100 µg/mL. The compound further registered a minimal inhibitory concentration (MIC) in assay [1] of 16.6 µg/mL (≈ 28.9 µM).
Compound `O=C(Cn1cc(C(=O)c2cn(-c3ccccc3)nc2-c2ccc(Cl)cc2)nn1)Nc1c(C(F)(F)F)n[nH]c1-c1ccccc1` showed an IC50 in the assay on A549 of over 100 µg/mL. Besides, the minimum inhibitory concentration (MIC) in assay [1] was over 100 µg/mL.
Compound `CCCCc1cn(CC(=O)Nc2c(C(F)(F)F)n[nH]c2-c2ccccc2)nn1` came in with an IC50 with A549 of over 100 µg/mL. The same compound yielded an MIC in assay [1] of 65.5 µg/mL (≈ 167 µM).
For `COc1ccc(-c2cn(CC(=O)Nc3c(C(F)(F)F)n[nH]c3-c3ccccc3)nn2)c(C)c1`, the IC50 in the assay with A549 is 54 µg/mL (≈ 118 µM). Also, the lowest concentration to inhibit growth in assay [1] (MIC) was 85.6 µg/mL (≈ 188 µM).
For `O=C(Cn1cc(C(=O)N/N=C/c2ccc(C(F)(F)F)cc2)nn1)Nc1c(C(F)(F)F)n[nH]c1-c1ccccc1`, in that order: over 100 µg/mL and over 100 µg/mL.
In the assay on A549, `CC(C)(C)c1ccc(-c2cn(CC(=O)Nc3c(C(F)(F)F)n[nH]c3-c3ccccc3)nn2)cc1` registered an IC50 of 25.8 µg/mL (≈ 55.2 µM). The MIC in assay [1] was over 100 µg/mL.
